Source: ChEMBL document CHEMBL1148084, “Novel naphthoquinones from Conospermum incurvum” (J Nat Prod, 1994)
Active and inactive are the calls of the source. No cut-off for these calls is given here.

tested on: Human immunodeficiency virus 1; assay: Antiviral activity against HIV1 in human cells by XTT assay; assay type: functional, organism-based

SMILES	Activity
CC1=C(O)C(=O)c2c(ccc3c2C=C[C@@](C)(CCCC(C)(C)O)O3)C1=O	inactive
CC(C)=CCC[C@]1(C)C=Cc2c(ccc3c2C(=O)C(O)=C(C)C3=O)O1	inactive
COC1=C(C)C(=O)c2ccc3c(c2C1=O)C=C[C@@](C)(CCCC(C)(C)O)O3	inactive
CC(C)=CCC/C(C)=C/Cc1c(O)ccc2c1C(=O)C(O)=C(C)C2=O	inactive
COc1cc2c(cc1O)C(=O)C(C)=C(C)C2=O	inactive
COC1=C(C)C(=O)c2ccc3c(c2C1=O)C=C[C@@](C)(CCC=C(C)C)O3	inactive
